Here are results for 44 compounds from patent publication US6781000B1, “Alpha-ketoamide inhibitors of 20S proteasome” (CV Theurapeutics, Inc., priority 1998, dated 2004).

In this experiment the target is T1, chymotrypsin-like activity of 20S proteasome (Bos taurus, UniProt Q2TBX6+Q32KL2).
T1 construct: was purified to homogeneity from bovine brain according to published methods; from tissue; host or cells: bovine brain
In words: 20S proteasome chymotryptic activity inhibition assay (Suc-Leu-Leu-Val-Tyr-AMC cleavage). In kind it is biochemical. Conditions: 2 μg 20S proteasome from bovine brain, 50 μM fluorogenic substrate, 15 minutes at 37° C., pH7.5. In a few lines:
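Bovine brain 20S proteasome (2 μg) with inhibitor at 0.1-100 μg/ml in 50 mM HEPES, 0.1% SDS, pH7.5. Reaction started with 50 μM Suc-LLVY-AMC, run 15 min at 37° C, stopped with pH 4.0 acetate; liberated AMC read by fluorescence (EX 370 nm, EM 430 nm).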

Turning to `CCCC(NC(=O)C(=O)Cc1c[nH]c2ccccc12)C(=O)NC(CC(C)C)C(=O)NC(CCC(=O)O)C(=O)O` (centres unmarked) [Compound 157], the “IC50 for the inhibition of the chymotrypsin-like activity of 20S proteasome” value (from here on “IC50 for the inhibition”) was more than 10 µg/mL.

`CC(C)CC(NC(=O)C(Cc1ccc(O)cc1)NC(=O)C(=O)Cc1c[nH]c2ccccc12)C(=O)NC(CCC(=O)O)C(=O)O` (centres unmarked) [Compound 158] gave an IC50 of more than 16.4 µM.

Regarding `CCC(C)C(NC(=O)C(=O)Cc1c[nH]c2ccccc12)C(=O)NC(CC(C)C)C(=O)NC(CCC(=O)O)C(=O)O` (centres unmarked) [Compound 159], the “IC50 for the inhibition” value was more than 10 µg/mL.

As to `CC(C)CC(NC(=O)C(CC1CCCCC1)NC(=O)C(=O)Cc1c[nH]c2ccccc12)C(=O)NC(CCC(=O)O)C(=O)O` (centres unmarked) [Compound 160], the “IC50 for the inhibition” value was more than 10 µg/mL.

With `CC(C)CC(NC(=O)C(Cc1cccnc1)NC(=O)C(=O)Cc1c[nH]c2ccccc12)C(=O)NC(CCC(=O)O)C(=O)O` (centres unmarked) [Compound 161], the “IC50 for the inhibition” value is more than 10 µg/mL.

For the compound `CC(C)CC(NC(=O)C(Cc1ccc2ccccc2c1)NC(=O)C(=O)Cc1c[nH]c2ccccc12)C(=O)NC(CCC(=O)O)C(=O)O` (centres unmarked) [Compound 162], the “IC50 for the inhibition” value was more than 10 µg/mL.

Take `CC(C)CC(NC(=O)C(Cc1ccc(-c2ccccc2)cc1)NC(=O)C(=O)Cc1c[nH]c2ccccc12)C(=O)NC(CCC(=O)O)C(=O)O` (centres unmarked) [Compound 163]: the “IC50 for the inhibition” value is more than 10 µg/mL.

For `CC(C)CC(NC(=O)C(Cc1ccc2ccccc2c1)NC(=O)C(=O)Cc1c[nH]c2ccccc12)C(=O)NC(C(=O)O)C(C)C` (centres unmarked) [Compound 164], the “IC50 for the inhibition” value is more than 10 µg/mL.

For the compound `CC(C)CC(NC(=O)C(Cc1ccc(-c2ccccc2)cc1)NC(=O)C(=O)Cc1c[nH]c2ccccc12)C(=O)NC(C(=O)O)C(C)C` (centres unmarked) [Compound 165], the “IC50 for the inhibition” value was more than 10 µg/mL.

In the case of `CCC(C)C(NC(=O)C(=O)Cc1c[nH]c2ccccc12)C(=O)NC(CC(C)C)C(=O)NC(C(=O)O)C(C)C` (centres unmarked) [Compound 167], the “IC50 for the inhibition” value is more than 10 µg/mL.

As for `CC(C)CC(NC(=O)C(CC1CCCCC1)NC(=O)C(=O)Cc1c[nH]c2ccccc12)C(=O)NC(C(=O)O)C(C)C` (centres unmarked) [Compound 168], the “IC50 for the inhibition” value is more than 10 µg/mL.

Regarding `CC(C)CC(NC(=O)C(Cc1cccnc1)NC(=O)C(=O)Cc1c[nH]c2ccccc12)C(=O)NCC(=O)O` (centres unmarked) [Compound 169], the “IC50 for the inhibition” value was more than 10 µg/mL.

As to `CC(C)CC(NC(=O)C(Cc1ccc2ccccc2c1)NC(=O)C(=O)Cc1c[nH]c2ccccc12)C(=O)NCC(=O)O` (centres unmarked) [Compound 170], the “IC50 for the inhibition” value is more than 10 µg/mL.

For `CC(C)CC(NC(=O)C(Cc1ccc(-c2ccccc2)cc1)NC(=O)C(=O)Cc1c[nH]c2ccccc12)C(=O)NCC(=O)O` (centres unmarked) [Compound 171], the “IC50 for the inhibition” value is more than 10 µg/mL.

Regarding `CC(C)CC(NC(=O)C(CC1CCCCC1)NC(=O)C(=O)Cc1c[nH]c2ccccc12)C(=O)NC(C(=O)O)C(C)C` (centres unmarked) [Compound 172], the “IC50 for the inhibition” value was more than 10 µg/mL.

For `CC(C)CC(NC(=O)C(Cc1cccnc1)NC(=O)C(=O)Cc1c[nH]c2ccccc12)C(=O)NC(C(=O)O)C(C)C` (centres unmarked) [Compound 173], the “IC50 for the inhibition” value is more than 10 µg/mL.

Take `CCCCC(NC(=O)C(CC(C)C)NC(=O)C(Cc1ccc(-c2ccccc2)cc1)NC(=O)C(=O)Cc1c[nH]c2ccccc12)C(=O)O` (centres unmarked) [Compound 174]: the “IC50 for the inhibition” value is 5 µg/mL.

As to `CC(C)CC(NC(=O)C(Cc1ccc(-c2ccccc2)cc1)NC(=O)C(=O)Cc1c[nH]c2ccccc12)C(=O)NC(Cc1ccccc1)C(=O)O` (centres unmarked) [Compound 175], the “IC50 for the inhibition” value is more than 10 µg/mL.

Turning to `CC(C)CC(NC(=O)C(Cc1ccc(-c2ccccc2)cc1)NC(=O)C(=O)Cc1c[nH]c2ccccc12)C(=O)NC(CC(=O)O)C(=O)O` (centres unmarked) [Compound 176], the “IC50 for the inhibition” value was found to be 1 µg/mL.

Turning to `CCCCC(NC(=O)C(CC(C)C)NC(=O)C(Cc1ccc2ccccc2c1)NC(=O)C(=O)Cc1c[nH]c2ccccc12)C(=O)O` (centres unmarked) [Compound 178], the “IC50 for the inhibition” value was more than 10 µg/mL.

`CC(C)CC(NC(=O)C(Cc1ccc2ccccc2c1)NC(=O)C(=O)Cc1c[nH]c2ccccc12)C(=O)NC(Cc1ccccc1)C(=O)O` (centres unmarked) [Compound 179]: the “IC50 for the inhibition” value is more than 10 µg/mL.

Turning to `CC(C)CC(NC(=O)C(Cc1ccc2ccccc2c1)NC(=O)C(=O)Cc1c[nH]c2ccccc12)C(=O)NC(CC(=O)O)C(=O)O` (centres unmarked) [Compound 180], the “IC50 for the inhibition” value stood at 5 µg/mL.

For `CC(C)CC(NC(=O)C(=O)Cc1c[nH]c2ccccc12)C(=O)NC(Cc1ccccc1)C(=O)O` (centres unmarked) [Compound 182], the “IC50 for the inhibition” value is more than 10 µg/mL.

As for `CC(C)CC(NC(=O)CNC(=O)C(=O)Cc1c[nH]c2ccccc12)C(=O)NCC(=O)O` (centres unmarked) [Compound 184], the “IC50 for the inhibition” value was more than 10 µg/mL.

In the case of `CC(C)CC(NC(=O)C(Cc1ccc(-c2ccccc2)cc1)NC(=O)C(=O)Cc1c[nH]c2ccccc12)C(=O)NC(CC(N)=O)C(=O)O` (centres unmarked) [Compound 185], the “IC50 for the inhibition” value worked out at 5 µg/mL.

`CC(C)CC(NC(=O)C(Cc1ccc(-c2ccccc2)cc1)NC(=O)C(=O)Cc1c[nH]c2ccccc12)C(=O)NC(CCC(N)=O)C(=O)O` (centres unmarked) [Compound 186]: the “IC50 for the inhibition” value was more than 10 µg/mL.

In the case of `CC(C)CC(NC(=O)C(Cc1ccc(-c2ccccc2)cc1)NC(=O)C(=O)Cc1c[nH]c2ccccc12)C(=O)NC(Cc1ccc(-c2ccccc2)cc1)C(=O)O` (centres unmarked) [Compound 187], the “IC50 for the inhibition” value was more than 10 µg/mL.

As for `CC(C)CC(NC(=O)C(Cc1ccc(-c2ccccc2)cc1)NC(=O)C(=O)Cc1c[nH]c2ccccc12)C(=O)NCCC(=O)O` (centres unmarked) [Compound 188], the “IC50 for the inhibition” value came out at 5 µg/mL.

With `CC(C)CC(NC(=O)C(Cc1ccc(-c2ccccc2)cc1)NC(=O)C(=O)Cc1c[nH]c2ccccc12)C(=O)NC(Cc1ccc(-c2ccccc2)cc1)C(=O)O` (centres unmarked) [Compound 189], the “IC50 for the inhibition” value was more than 10 µg/mL.

Turning to `CC(C)CC(NC(=O)C(Cc1ccc(-c2ccccc2)cc1)NC(=O)C(=O)Cc1c[nH]c2ccccc12)C(=O)NC(CCCNC(=N)N)C(=O)O` (centres unmarked) [Compound 191], the IC50 is 4.31 µM.

Take `CC(C)CC(NC(=O)C(Cc1ccc(-c2ccccc2)cc1)NC(=O)C(=O)Cc1c[nH]c2ccccc12)C(=O)NC(Cc1cccnc1)C(=O)O` (centres unmarked) [Compound 192]: the “IC50 for the inhibition” value came to 3 µg/mL.

On to `CC(C)CC(NC(=O)C(Cc1ccc(-c2ccccc2)cc1)NC(=O)C(=O)Cc1c[nH]c2ccccc12)C(=O)NC(CCCCN)C(=O)O` (centres unmarked) [Compound 193], for which the “IC50 for the inhibition” value was more than 10 µg/mL.

For `CC(C)CC(NC(=O)C(Cc1ccc(-c2ccccc2)cc1)NC(=O)C(=O)Cc1c[nH]c2ccccc12)C(=O)NC(C(=O)O)c1ccccc1` (centres unmarked) [Compound 194], the “IC50 for the inhibition” value is more than 10 µg/mL.

Turning to `CC(C)CC(NC(=O)C(Cc1ccc(-c2ccccc2)cc1)NC(=O)C(=O)Cc1c[nH]c2ccccc12)C(=O)NC(CC(=O)O)C(=O)O` (centres unmarked) [Compound 195], the “IC50 for the inhibition” value is more than 10 µg/mL.

In the case of `CC(C)CC(NC(=O)C(Cc1ccc(-c2ccccc2)cc1)NC(=O)C(=O)Cc1c[nH]c2ccccc12)C(=O)NC(Cc1c[nH]cn1)C(=O)O` (centres unmarked) [Compound 196], the “IC50 for the inhibition” value was more than 10 µg/mL.

As to `CC(C)CC(NC(=O)C(Cc1ccc(-c2ccccc2)cc1)NC(=O)C(=O)Cc1c[nH]c2ccccc12)C(=O)NC(Cc1cscn1)C(=O)O` (centres unmarked) [Compound 198], the “IC50 for the inhibition” value was more than 10 µg/mL.

Regarding `CCCC(NC(=O)C(=O)Cc1c[nH]c2ccccc12)C(=O)NC(CC(C)C)C(=O)NC(C(=O)O)C(C)C` (centres unmarked) [Compound 199], the “IC50 for the inhibition” value was more than 10 µg/mL.

In turn, `CC(C)C[C@@H](NC(=O)[C@H](CC(=O)O)NC(=O)C(=O)Cc1c[nH]c2ccccc12)C(=O)N[C@H](C(=O)O)C(C)C` [Compound 200] had an IC50 of more than 18.8 µM.

As for `CCCC(NC(=O)C(=O)Cc1c[nH]c2ccccc12)C(=O)NC(CC(C)C)C(=O)NC(C(=O)O)C(C)C` (centres unmarked) [Compound 201], the “IC50 for the inhibition” value is more than 10 µg/mL.

As to `CC(C)C(NC(=O)C(NC(=O)C(Cc1ccc(O)cc1)NC(=O)C(=O)Cc1c[nH]c2ccccc12)C(C)C)C(=O)O` (centres unmarked) [Compound 202], the “IC50 for the inhibition” value was more than 10 µg/mL.

On to `CC(C)C(NC(=O)C(NC(=O)C(NC(=O)C(=O)Cc1c[nH]c2ccccc12)C(C)C)C(C)C)C(=O)O` (centres unmarked) [Compound 203], for which the “IC50 for the inhibition” value is more than 10 µg/mL.

In the case of `CC(C)CC(NC(=O)C(Cc1ccc2ccccc2c1)NC(=O)C(=O)Cc1c[nH]c2ccccc12)C(=O)NC(Cc1c[nH]cn1)C(=O)O` (centres unmarked) [Compound 204], the “IC50 for the inhibition” value is more than 10 µg/mL.

As for `CC(C)CC(NC(=O)C(Cc1ccc2ccccc2c1)NC(=O)C(=O)Cc1c[nH]c2ccccc12)C(=O)NC(CCCNC(=N)N)C(=O)O` (centres unmarked) [Compound 205], the “IC50 for the inhibition” value is more than 10 µg/mL.

For the compound `CC(C)CC(NC(=O)C(Cc1ccc2ccccc2c1)NC(=O)C(=O)Cc1c[nH]c2ccccc12)C(=O)NC(Cc1cccnc1)C(=O)O` (centres unmarked) [Compound 206], the “IC50 for the inhibition” value was more than 10 µg/mL.
